From patent US20250270645A1, “ALGORITHM AND AN IN VITRO METHOD BASED ON RNA EDITING TO SELECT PARTICULAR EFFECT INDUCED BY ACTIVE COMPOUNDS” (ALCEDIAG, priority 2016, published 2025)
Entries after “also recorded” stand apart in the source; their conditions may differ.

Experiments:
[1] = annotation of the molecule (low/no risk versus high/at risk); cited from earlier work
HTR2C RNA editing [2] = assay: Time course of HTR2C RNA editing in SH-SY5Y cells with risk score by the most preferred algorithm (prob(Algorithm)); assay type: cell-based, human; conditions: for prob(Algorithm) risk score / prediction: SH-SY5Y, HTR2C; for time course of HTR2C RNA editing profile: SH-SY5Y cells, 12-48 h; for risk score over time points: most preferred algorithm, each time point
ADAR1a mRNA expression = assay: Relative ADAR1a mRNA expression by quantitative PCR in treated SH-SY5Y cells; assay type: cell-based, human; conditions: 48 hours
Description: After cDNA synthesis samples were stored at 4° C. prior analysis of ADAR1a mRNA expression by qPCR on a LC480 system (Roche). qPCR data were quantified using the standard curve method. mRNA expression of ADAR1a is known to be induced by Interferon alpha treatment (IFNα). […] In this way, all samples of the same batch could be analysed in a single qPCR run. […] This response could be seen in all biological replicates (n=5). […] The coefficient of variation of 9.31% clearly illustrates the reproducibility of the biological phenomenon.

HTR2C RNA editing [3] = assay: Dose-dependent alterations of HTR2C RNA editing profile in SH-SY5Y cells; assay type: cell-based, human; conditions: compared to vehicle-treated cells
Description: Prior to the experiment, the human neuroblastoma cell line (SH-SY5Y) was treated with an increasing dose of interferon and RNA editing of 5HT2cR was measured using NGS based approach.
The RNA editing profiles represent the respective relative proportion of HTR2C RNA editing as compared to vehicle-treated SH-SY5Y cells.

C[C@H](NC(=O)C(C)(C)Oc1ccc(C(F)(F)F)cn1)[C@@H](Cc1ccc(Cl)cc1)c1cccc(C#N)c1 [Taranabant]
risk class to induce psychiatric adverse side effect in a patient [1]: at risk

O=C1CCc2ccc(OCCCCN3CCN(c4cccc(Cl)c4Cl)CC3)cc2N1 [Aripiprazole]
prob(Algorithm) risk score (HTR2C RNA editing [2]; 12 h treatment): 0.528 | prediction (HTR2C RNA editing [2]; 24 h treatment): Pos | prob(Algorithm) risk score (HTR2C RNA editing [2]; 24 h treatment): 0.632 | prediction (HTR2C RNA editing [2]; 48 h treatment): Pos | prob(Algorithm) risk score (HTR2C RNA editing [2]; 48 h treatment): 0.760 | time course of HTR2C RNA editing profile (HTR2C RNA editing [2]): time-dependent alterations of the RNA editing profile | risk score over time points (HTR2C RNA editing [2]): identified positively at risk starting from 24 hours and beyond | risk class to induce psychiatric adverse side effect in a patient [1]: at risk

CC1=C(/C=C/C(C)=C/C=C/C(C)=C\C(=O)O)C(C)(C)CCC1 [Isotretinoin]
risk class to induce psychiatric adverse side effect in a patient [1]: at risk

COC(=O)[C@H]1[C@H]2C[C@@H]3c4[nH]c5cc(OC)ccc5c4CCN3C[C@H]2C[C@@H](OC(=O)c2cc(OC)c(OC)c(OC)c2)[C@@H]1OC [molecule 165]
effect on ADAR1a mRNA expression (ADAR1a mRNA expression): induced ADAR1a mRNA expression; also recorded: strong increase of ADAR1a mRNA expression levels

CNC1(c2ccccc2Cl)CCCCC1=O (centres unmarked) [Ketamine]
dose dependence of 5-HT2cR/HTR2C RNA editing profile (HTR2C RNA editing [3]): Dose-dependent alterations of RNA editing profiles | risk class to induce psychiatric adverse side effect in a patient [1]: low risk

CN[C@H]1CC[C@@H](c2ccc(Cl)c(Cl)c2)c2ccccc21 [Sertraline]
dose dependence of 5-HT2cR/HTR2C RNA editing profile (HTR2C RNA editing [3]): Dose-dependent alterations of RNA editing profiles | risk class to induce psychiatric adverse side effect in a patient [1]: at risk

[Li] [Lithium]
risk class to induce psychiatric adverse side effect in a patient [1]: low risk

NC(=O)c1ncn([C@@H]2O[C@H](CO)[C@@H](O)[C@H]2O)n1 [Ribavirin]
risk class to induce psychiatric adverse side effect in a patient [1]: low risk

CNCCC(Oc1ccc(C(F)(F)F)cc1)c1ccccc1 (centres unmarked) [Fluoxetine]
risk class to induce psychiatric adverse side effect in a patient [1]: high risk

COC(=O)[C@H]1[C@H]2C[C@@H]3c4[nH]c5cc(OC)ccc5c4CCN3C[C@H]2C[C@@H](OC(=O)c2cc(OC)c(OC)c(OC)c2)[C@@H]1OC [Reserpine]
effect on ADAR1a mRNA expression (ADAR1a mRNA expression): consistently increase ADAR1a mRNA levels | prediction (HTR2C RNA editing [2]; 12 h treatment): Pos | prob(Algorithm) risk score (HTR2C RNA editing [2]; 12 h treatment): 0.878 | prediction (HTR2C RNA editing [2]; 24 h treatment): Pos | prob(Algorithm) risk score (HTR2C RNA editing [2]; 24 h treatment): 0.986 | prediction (HTR2C RNA editing [2]; 48 h treatment): Pos | prob(Algorithm) risk score (HTR2C RNA editing [2]; 48 h treatment): 0.976 | time course of HTR2C RNA editing profile (HTR2C RNA editing [2]): time-dependent alterations of the RNA editing profile | risk score over time points (HTR2C RNA editing [2]): risk scores were high at all time points | risk class to induce psychiatric adverse side effect in a patient [1]: high risk

CCN(CC)CC(=O)Nc1c(C)cccc1C [Lidocaine]
risk class to induce psychiatric adverse side effect in a patient [1]: low or no risk
